Measurements: patent US11358933B2, “Compounds and methods for inhibiting CYP26 enzymes” (Queen's University at Kingston, priority 2017, dated 2022)

Columns and labels:
[1] = tested on: human AML THP-1 cells; assay: Leukemia cell differentiation by FACS (PE-CD11b), THP-1 cells with or without OP9 stroma; format: cell-based
Description: Many human non-APL AML cell lines are sensitive to RA-induced differentiation. However, co-culture of leukemic cells with bone marrow stromal cells can block this effect of RA. This assay tests the ability of CYP26 inhibitor compounds to overcome the protective effect that stromal cells have on leukemic cell differentiation. For these experiments, OP9 mouse bone marrow stromal cells are grown MEM-α containing 20% FBS, in 24 well plates until a cell monolayer is formed. OP9 cells are then irradiated (15Gy) using a GammaCell 20 cesium-137 source (located at Queen's University) in order to induce growth arrest. Leukemic cells are then added to the irradiated monolayers, or control wells without OP9 cells. AML cell lines (150,000 cells) are then plated onto OP9 monolayers in their appropriated growth medium; THP-1 RPMI-1640 medium containing 10% FBS; MDSL, RPMI-1640 medium containing 10% FBS and 10 ng/ml recombinant human IL-3; Kasumi-1, RPMI-1640 containing 20% FBS; MV4-11, IMDM containing 10% FBS. Cells are then treated for 72 hours with DMSO (vehicle control), RA (0.1 μM for THP-1 and MV4-11 cells, and 1 μM for Kasumi-1 cells), test CYP26 inhibitor compound, or the combination of RA and inhibitor compound. After the treatment period, leukemic cells are collected and stained with fluorophore labeled antibodies against cell surface antigens indicative of myeloid differentiation (PE-CD11b), or of stem cell populations (FITC-CD34, PE-CD38); all antibodies are available from BD Biosciences. Stained cells are then sorted by FACS in a BD FACS Aria 3 flow cytometer (Queen's University) using FACS Diva software, to assess percentage of cells that are CD11b^+, the relative expression levels of CD11b (by median fluorescence intensity—MFI), or percentage of CD34^+CD38^− leukemic stem cells (LSCs). Results are typically presented as the average of triplicates.

[2] = tested on: Cyp26a1-luc construct in MCF-7 cells; assay: Retinoid activity assay, Cyp26a1-luc reporter in MCF-7 cells; format: cell-based; settings: for Rel. Luciferase Activity (mean): 24 hours, firefly relative to Renilla luciferase
Text: This retinoid activity assay measures the ability of test compounds to induce expression of a transiently transfected RA sensitive reporter construct. In this assay, MCF-7 cells are transfected with a construct comprising an upstream promoter of the CYP26A1 gene containing 2 RA response elements driving expression of firefly luciferase (pCYP26A1-luc). Since CYP26A1 is highly inducible by RA in these cells, this construct serves as a sensitive reporter of retinod-like transcriptional activity.
MCF-7 cells were maintained in a RPMI-1640 medium containing 10% FBS. Exponentially growing cells were harvested by incubation in trypsin. Cells were then collected and plated in 24-well plates at 50,000 cells/well. Once cells reached 80-90% confluence (e.g., the next day), cells were transfected with two plasmids. The first plasmid was CYP26A1-luc construct (375 ng). The second plasmid was a control plasmid comprising the Renilla luciferase gene driven by constitutive thymidine kinase promoter (pRL-tk) (25 ng). Transfection was performed using FuGene 6 transfection reagent (Promega) with a 1:3 ratio of DNA:FuGene. 24 hours after transfection, cells were treated with test compounds diluted in DMSO in triplicate at 0.1, 1 and 10 μM final concentrations. As a positive control for reporter activation, cells were also treated with RA diluted in DMSO at the same concentrations listed above. DMSO treatment alone served as a negative control. After 24 hours of treatment, cells were harvested in passive lysis buffer (Promega) and luciferase activity in cell lysates were read using a luminometer. Data are expressed as the activity of firefly luciferase relative to Renilla luciferase (see Tables 3-5). For CYP26A1 inhibitor compounds, no activation of the reporter was detected, while the related retinoid-like compound induces luciferase expression.

CC(C)(C)c1cccc(-c2cc3cc(/C=C/C(=O)O)ccc3[nH]2)c1 [Compound 026]
PE-CD11b MFI ([1]; 0.1 μM RA plus 1 μM compound, OP9 stroma present, 72 hours): greatly enhanced CD11b MFI | Sensitization to low doses of RA ([1]; in the presence of stroma): sensitized THP-1 cells to low doses of RA | Agonist activity in luciferase reporter transactivation experiment [2]: did not show agonist activity | Rel. Luciferase Activity (mean) ([2]; 0.1 μM): .0522 | Rel. Luciferase Activity (mean) ([2]; 1 μM): .0472 | Rel. Luciferase Activity (mean) ([2]; 10 μM): .0678
